# In ChEMBL document CHEMBL1134973, “Modification of the pyridine moiety of non-peptidyl indole GnRH receptor antagonists” (Bioorg Med Chem Lett, 2002):
# Experiments:
# [1] = molecular target: T1, Gonadotropin-releasing hormone receptor (Homo sapiens, UniProt P30968); assay: Concentration required for the inhibition of I-125 labeled buserelin binding to the human Gonadotropin-releasing hormone receptor
# T1 sequence (P30968 whole entry): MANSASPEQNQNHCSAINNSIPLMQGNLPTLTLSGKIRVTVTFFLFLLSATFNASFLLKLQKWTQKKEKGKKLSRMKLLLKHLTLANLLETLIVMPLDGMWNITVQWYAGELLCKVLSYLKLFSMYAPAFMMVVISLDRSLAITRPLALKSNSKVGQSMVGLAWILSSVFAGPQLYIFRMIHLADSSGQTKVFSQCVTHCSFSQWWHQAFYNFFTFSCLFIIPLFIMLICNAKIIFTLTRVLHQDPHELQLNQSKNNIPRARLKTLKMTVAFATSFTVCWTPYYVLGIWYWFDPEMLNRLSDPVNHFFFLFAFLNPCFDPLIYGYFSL
# [2] = molecular target: T1, Gonadotropin-releasing hormone receptor; assay: Concentration required for the inhibition of phosphatidyl inositol hydrolysis in chinese hamster ovary cells expressing human GnRH receptor (Gonadotropin Release Hormone receptor); format: functional, cell-based
# [3] = Oral bioavailability in dog; format: ADME, organism-based, Canis lupus familiaris; conditions: in vivo
# [4] = Oral bioavailability of compound was determined in rats; format: ADME, organism-based; conditions: rat, in vivo
# [5] = Half-life of compound was determined in rats; format: ADME, organism-based; conditions: rat, in vivo
# [6] = Half-life of compound was determined in dogs; format: ADME, organism-based, Canis lupus familiaris; conditions: dog, in vivo
# [7] = Half-life of compound in plasma of dog was determined; format: ADME, organism-based, Canis lupus familiaris
SMILES,IC50 [1] [nM],IC50 [2] [nM],bioavailability [3] [%],bioavailability [4] [%],half-life [5] [h],half-life [6] [h],half-life [7] [h]
COC(=O)c1cc(CCNC[C@@H](C)c2c(-c3cc(C)cc(C)c3)[nH]c3ccc(C(C)(C)C(=O)N4CC5CCC4CC5)cc23)ccn1,0.9,25,,,,,
Cc1cc(C)cc(-c2[nH]c3ccc(C(C)(C)C(=O)N4CC5CCC4CC5)cc3c2[C@H](C)CNCCc2ccnc(C#N)c2)c1,0.7,11,,,,,
CCCc1cc(CCNC[C@@H](C)c2c(-c3cc(C)cc(C)c3)[nH]c3ccc(C(C)(C)C(=O)N4CC5CCC4CC5)cc23)ccn1,4.6,62,,,,,
Cc1cc(C)cc(-c2[nH]c3ccc(C(C)(C)C(=O)N4CC5CCC4CC5)cc3c2[C@H](C)CNCCc2ccnc(C(=O)O)c2)c1,8.2,371,,,,,
Cc1cc(C)cc(-c2[nH]c3ccc(C(C)(C)C(=O)N4CC5CCC4CC5)cc3c2[C@H](C)CNCCc2ccnc(C)c2)c1,0.9,8.7,36,,,,
CCc1cc(CCNC[C@@H](C)c2c(-c3cc(C)cc(C)c3)[nH]c3ccc(C(C)(C)C(=O)N4CC5CCC4CC5)cc23)ccn1,3.3,19,,,,,
Cc1cc(C)cc(-c2[nH]c3ccc(C(C)(C)C(=O)N4CC5CCC4CC5)cc3c2[C@H](C)CNCCc2ccnc(C(C)(C)O)c2)c1,0.7,106,,,,,
Cc1cc(C)cc(-c2[nH]c3ccc(C(C)(C)C(=O)N4CC5CCC4CC5)cc3c2[C@H](C)CNCCc2ccncc2C)c1,0.8,48,,,,,
Cc1cc(C)cc(-c2[nH]c3ccc(C(C)(C)C(=O)N4CC5CCC4CC5)cc3c2[C@H](C)CNCCc2cc[n+]([O-])cc2C)c1,0.8,26,,,,,
COCc1cc(CCNC[C@@H](C)c2c(-c3cc(C)cc(C)c3)[nH]c3ccc(C(C)(C)C(=O)N4CC5CCC4CC5)cc23)ccn1,0.7,55,,,,,

# These reach a lower IC50 [1]. Values come first.
IC50 [1] [nM],IC50 [2] [nM],bioavailability [3] [%],bioavailability [4] [%],half-life [5] [h],half-life [6] [h],half-life [7] [h],SMILES
0.6,20,,,,,,Cc1cc(C)cc(-c2[nH]c3ccc(C(C)(C)C(=O)N4CC5CCC4CC5)cc3c2[C@H](C)CNCCc2ccnc(C(C)O)c2)c1 (stereo partly specified)
0.6,12,,,,,,CC(=O)c1cc(CCNC[C@@H](C)c2c(-c3cc(C)cc(C)c3)[nH]c3ccc(C(C)(C)C(=O)N4CC5CCC4CC5)cc23)ccn1
0.5,10,29,,,7,,Cc1cc(C)cc(-c2[nH]c3ccc(C(C)(C)C(=O)N4CC5CCC4CC5)cc3c2[C@H](C)CNCCc2cc(C)[n+]([O-])c(C)c2)c1
0.4,24,,,,,,Cc1cc(C)cc(-c2[nH]c3ccc(C(C)(C)C(=O)N4CC5CCC4CC5)cc3c2[C@H](C)CNCCc2cc(C)nc(C)c2)c1
0.4,7.5,15,,,,2,Cc1cc(C)cc(-c2[nH]c3ccc(C(C)(C)C(=O)N4CC5CCC4CC5)cc3c2[C@H](C)CNCCc2ccnc(CO)c2)c1
0.4,22,,,,,,CC(=O)OCc1cc(CCNC[C@@H](C)c2c(-c3cc(C)cc(C)c3)[nH]c3ccc(C(C)(C)C(=O)N4CC5CCC4CC5)cc23)ccn1
0.3,5.9,25,23,2,5,,Cc1cc(C)cc(-c2[nH]c3ccc(C(C)(C)C(=O)N4CC5CCC4CC5)cc3c2[C@H](C)CNCCc2cc[n+]([O-])c(C)c2)c1
0.3,6.4,14,,,,,Cc1cc(C)cc(-c2[nH]c3ccc(C(C)(C)C(=O)N4CC5CCC4CC5)cc3c2[C@H](C)CNCCc2cc[n+]([O-])cc2)c1
